{
  "source": "patent US20170050957A1",
  "about": "“4-AMINO-6-(HETEROCYCLIC)PICOLINATES AND 6-AMINO-2-(HETEROCYCLIC)PYRIMIDINE-4-CARBOXYLATES AND THEIR USE AS HERBICIDES” (Dow AgroSciences LLC, priority 2013, published 2017)",
  "key": {"[1]": {"system": "Key Grass and Sedge Weeds as well as Grass Crops", "assay": "Post-emergent Test II herbicidal activity (Table 16)", "format": "in vivo", "settings": "post-emergence, 336 h, 14 days after application; for pest or weed control at 35 g/ha: 35 g ai/ha; for pest or weed control at 70 g/ha: 70 g ai/ha; for pest or weed control at 140 g/ha: 140 g ai/ha", "in_short": "(§1)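 Plants grown in greenhouse (~15 h photoperiod, 23-29 °C day, 22-28 °C night) to first or second true leaf stage, then sprayed post-emergence at 187 L/ha with a high rate and 1/2×, 1/4×, 1/8× and 1/16× dilutions. Injury scored visually after 14 d, 0-100% versus untreated plants.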"}, "[2]": {"system": "Key Broadleaf Weed and Crop Species", "assay": "Post-emergent Test II herbicidal activity (Table 15)", "format": "in vivo", "settings": "post-emergence, 336 h, 14 d; for pest or weed control at 35 g/ha: 35 g ai/ha; for pest or weed control at 70 g/ha: 70 g ai/ha; for pest or weed control at 140 g/ha: 140 g ai/ha", "in_short": "as §1"}, "[3]": {"settings": "Cyperus esculentus, yellow nutsedge (Cyperus esculentus), read-out: Visual Growth Reduction (%) 14 Days After Application CYPES"}, "[4]": {"settings": "Echinochloa crus-galli, barnyardgrass (Echinochloa crus-galli), read-out: Visual Growth Reduction (%) 14 Days After Application ECHCG"}, "[5]": {"settings": "Oryza sativa, rice (Oryza sativa), read-out: Visual Growth Reduction (%) 14 Days After Application ORYSA"}, "[6]": {"settings": "Triticum aestivum, wheat, spring (Triticum aestivum), read-out: Visual Growth Reduction (%) 14 Days After Application TRZAS"}, "[7]": {"settings": "Zea mays, maize, corn (Zea mays), read-out: Visual Growth Reduction (%) 14 Days After Application ZEAMX"}, "[8]": {"settings": "Abutilon theophrasti, velvetleaf (Abutilon theophrasti), read-out: Visual Growth Reduction (%) 14 Days After Application, ABUTH"}, "[9]": {"settings": "Amaranthus retroflexus, redroot pigweed (Amaranthus retroflexus), read-out: Visual Growth Reduction (%) 14 Days After Application, AMARE"}, "[10]": {"settings": "Brassica napus, oilseed rape, canola (Brassica napus), read-out: Visual Growth Reduction (%) 14 Days After Application, BRSNN"}, "[11]": {"settings": "Chenopodium album, lambsquarters (Chenopodium album), read-out: Visual Growth Reduction (%) 14 Days After Application, CHEAL"}, "[12]": {"settings": "Euphorbia heterophylla, wild poinsettia (Euphorbia heterophylla), read-out: Visual Growth Reduction (%) 14 Days After Application, EPHHL"}, "[13]": {"settings": "Helianthus annuus, sunflower (Helianthus annuus), read-out: Visual Growth Reduction (%) 14 Days After Application, HELAN"}},
  "note": "Read-outs that look alike come from different tables or passages of the source.",
  "data": [
    {"smiles": "COC(=O)c1nc(-c2ccc3c(cnn3C)c2)c(F)c(N)c1Cl", "note": "[Compound 4.03]", "values": [
      {"measurement": "melting point", "value": "156 to 159", "unit": "°C"},
      {"measurement": "pest or weed control at 35 g/ha", "setting": "[1]; [3]", "value": "0 to 29", "unit": "%"},
      {"measurement": "pest or weed control at 70 g/ha", "setting": "[1]; [3]", "value": "0 to 29", "unit": "%"},
      {"measurement": "pest or weed control at 140 g/ha", "setting": "[1]; [3]", "value": "0 to 29", "unit": "%"},
      {"measurement": "pest or weed control at 35 g/ha", "setting": "[1]; [4]", "value": "60 to 74", "unit": "%"},
      {"measurement": "pest or weed control at 70 g/ha", "setting": "[1]; [4]", "value": "75 to 84", "unit": "%"},
      {"measurement": "pest or weed control at 140 g/ha", "setting": "[1]; [4]", "value": "75 to 84", "unit": "%"},
      {"measurement": "pest or weed control at 35 g/ha", "setting": "[1]; [5]", "value": "0 to 29", "unit": "%"},
      {"measurement": "pest or weed control at 70 g/ha", "setting": "[1]; [5]", "value": "0 to 29", "unit": "%"},
      {"measurement": "pest or weed control at 140 g/ha", "setting": "[1]; [5]", "value": "0 to 29", "unit": "%"},
      {"measurement": "pest or weed control at 35 g/ha", "setting": "[1]; [6]", "value": "0 to 29", "unit": "%"},
      {"measurement": "pest or weed control at 70 g/ha", "setting": "[1]; [6]", "value": "0 to 29", "unit": "%"},
      {"measurement": "pest or weed control at 140 g/ha", "setting": "[1]; [6]", "value": "0 to 29", "unit": "%"},
      {"measurement": "pest or weed control at 35 g/ha", "setting": "[1]; [7]", "value": "0 to 29", "unit": "%"},
      {"measurement": "pest or weed control at 70 g/ha", "setting": "[1]; [7]", "value": "0 to 29", "unit": "%"},
      {"measurement": "pest or weed control at 140 g/ha", "setting": "[1]; [7]", "value": "0 to 29", "unit": "%"},
      {"measurement": "pest or weed control at 35 g/ha", "setting": "[2]; [8]", "value": "0 to 29", "unit": "%"},
      {"measurement": "pest or weed control at 70 g/ha", "setting": "[2]; [8]", "value": "0 to 29", "unit": "%"},
      {"measurement": "pest or weed control at 140 g/ha", "setting": "[2]; [8]", "value": "0 to 29", "unit": "%"},
      {"measurement": "pest or weed control at 35 g/ha", "setting": "[2]; [9]", "value": "0 to 29", "unit": "%"},
      {"measurement": "pest or weed control at 70 g/ha", "setting": "[2]; [9]", "value": "45 to 59", "unit": "%"},
      {"measurement": "pest or weed control at 140 g/ha", "setting": "[2]; [9]", "value": "75 to 84", "unit": "%"},
      {"measurement": "pest or weed control at 35 g/ha", "setting": "[2]; [10]", "value": "0 to 29", "unit": "%"},
      {"measurement": "pest or weed control at 70 g/ha", "setting": "[2]; [10]", "value": "0 to 29", "unit": "%"},
      {"measurement": "pest or weed control at 140 g/ha", "setting": "[2]; [10]", "value": "0 to 29", "unit": "%"},
      {"measurement": "pest or weed control at 35 g/ha", "setting": "[2]; [11]", "value": "95 to 100", "unit": "%"},
      {"measurement": "pest or weed control at 70 g/ha", "setting": "[2]; [11]", "value": "95 to 100", "unit": "%"},
      {"measurement": "pest or weed control at 140 g/ha", "setting": "[2]; [11]", "value": "95 to 100", "unit": "%"},
      {"measurement": "pest or weed control at 35 g/ha", "setting": "[2]; [12]", "value": "45 to 59", "unit": "%"},
      {"measurement": "pest or weed control at 70 g/ha", "setting": "[2]; [12]", "value": "60 to 74", "unit": "%"},
      {"measurement": "pest or weed control at 140 g/ha", "setting": "[2]; [12]", "value": "75 to 84", "unit": "%"},
      {"measurement": "pest or weed control at 35 g/ha", "setting": "[2]; [13]", "value": "0 to 29", "unit": "%"},
      {"measurement": "pest or weed control at 70 g/ha", "setting": "[2]; [13]", "value": "45 to 59", "unit": "%"},
      {"measurement": "pest or weed control at 140 g/ha", "setting": "[2]; [13]", "value": "60 to 74", "unit": "%"}
    ]}
  ]
}
